Like-named read-outs stand apart in the source and are kept apart here.
Assays:
rhinovirus serotype 1B = assay: plaque reduction (PR) test; format: cell-based; settings: Enterovirus, read-out: PR(ED50)
Protocol: (§1) Activity may be detected by the plaque inhibition (PI) test and measured by the plaque reduction (PR) test. Both assays involve the formation of a monolayer cell culture in a petri dish followed by infection with a virus suspension, and then overlaying the culture with nutrient agarose in the form of a gel. This gel ensures that there is no spread of virus throughout the culture and thus areas of localised cell destruction, or plaques, are formed.
Detectable activity is measured with the plaque reduction assay. A range of concentrations of compound of known molarity are incorporated in the nutrient agarose overlay. Plaque suppression is proportional to compound concentration. Plaque numbers are expressed as percentages of a control, and a dose response curve may be drawn. From this curve 50% of the effective dose(ED50) may be estimated.

virus = assay: Intranasal administration - simulation in vitro (plaque inhibition test, compound applied to the lids of the petri dishes); format: cell-based; settings: 1 μg applied in ethanol to the lids of the petri dishes; confluent sheet of cells covered with agarose gel
Source text: as §1
In the plaque inhibition test a filter paper disc which holds 0.01 ml when impregnated with a solution of compound is placed on top of the agarose gel. The compound may then diffuse throughout the gel so that its greatest concentration will be around the disc and its lowest concentration towards the periphery of the petri dish. The efficacy of the compound may be detected by observing the zone of inhibition of plaque formation.
Petri dishes were prepared, as for the plaque inhibition test and the confluent sheet of cells was covered with a layer of agarose gel. The compound, 2-phenyltetrahydroisoquinoline (1 μg) was dissolved in ethanol, and applied to the lids of the petri dishes. When the ethanol had evaporated, leaving the compound spread over the inside of the lids, these were replaced on the petri dishes.

[1] = Activity versus rhinovirus serotype 1B, monolayer cell culture, compound in nutrient agarose overlay

Row | Compound | EC50 (rhinovirus serotype 1B; [1]) | EC50 (rhinovirus serotype 1B) | inhibition of plaque formation (virus)
1 | c1ccc(C2CCc3ccccc3S2)cc1 (centres unmarked) [Example 1, thioflavan] | 0.028 µM |  | 
2 | Clc1ccc(C2CCc3cc(Cl)ccc3S2)cc1 (centres unmarked) [Example 3, 4',6-dichlorothioflavan] | 0.044 µM |  | 
3 | c1ccc(N2CCc3ccccc3C2)cc1 [Example 4, 2-phenyl-1,2,3,4-tetrahydroisoquinoline] |  | 0.07 µM | total inhibition of plaque formation
4 | Clc1ccc(N2CCc3ccccc3C2)cc1 [Example 7, 1,2,3,4-tetrahydro-2-(4-chlorophenyl)isoquinoline] | 0.1 µM |  | 
5 | Fc1ccc(N2CCc3ccccc3C2)cc1 [Example 8, 1,2,3,4-tetrohydro-2-(4-fluorophenyl)isoquinoline] | 0.21 µM |  | 
6 | Cc1ccc(N2CCc3ccccc3C2)cc1 [Example 11, 1,2,3,4-tetrahydro-2-(4-methylphenyl)isoquinoline] | 1 µM |  | 
7 | COc1ccc(N2CCc3ccccc3C2)cc1 [Example 12, 1,2,3,4-tetrahydro-2-(4-methoxyphenyl)isoquinoline] | 2.45 µM |  | 
8 | Cc1cccc(C)c1N1CCc2ccccc2C1 [Example 13, 1,2,3,4-tetrahydro-2-(2,6-dimethylphenyl)isoquinoline] | 0.075 µM |  | 
9 | Oc1ccc(N2CCc3ccccc3C2)cc1 [Example 15, 1,2,3,4-tetrahydro-2-(4-hydroxyphenyl)isoquinoline] | 1.85 µM |  | 
10 | COc1ccc(N2CCc3ccccc3C2)c(OC)c1 [Example 16, 1,23,4-tetrahydro-2-(2-4-dimethoxyphenyl)isoquinoline] | 8 µM |  | 
11 | Clc1ccc2c(c1)CCN(c1ccccc1)C2 [Example 18, 6-chloro-2-phenyl-1,2,3,4-tetrahydroisoquinoline] | 0.57 µM |  | 
12 | Clc1ccc(N2CCc3cc(Cl)ccc3C2)cc1 [Example 19, 1,2,3,4-tetrahydro-2-(4-chlorophenyl)-6-chloroisoquinoline] | 0.05 µM |  | 
13 | Fc1ccc(N2CCc3cc(Cl)ccc3C2)cc1 [Example 20, 1,2,3,4-tetrahydro-2-(4-fluorophenyl)-6-chloroisoquinoline] | 0.21 µM |  | 
14 | Clc1ccc2c(c1)CN(c1ccccc1)CC2 [Example 21, 7-chloro-2-phenyl-1,2,3,4-tetrahydroisoquinoline] | 0.11 µM |  | 
15 | Clc1ccc(N2CCc3ccc(Cl)cc3C2)cc1 [Example 22, 7-chloro-2-(4-chlorophenyl)-1,2,3,4-tetrahydroisoquinoline] | 0.13 µM |  | 
16 | Clc1ccc2c(c1)CN(c1ccc(Cl)c(Cl)c1)CC2 [Example 23, 7-chloro-2-(3,4-dichlorophenyl)-1,2,3,4-tetrahydroisoquinoline] | 0.62 µM |  | 
17 | c1ccc(C2CCc3ccccc3N2)cc1 (centres unmarked) [Example 24, 1,2,3,4-tetrahydro-2-phenylquinoline] | 0.33 µM |  | 
18 | c1ccc(C2Cc3ccccc3CN2)cc1 (centres unmarked) [Example 26, 3-phenyl-1,2,3,4-tetrahydroisoquinoline] | 0.29 µM |  | 
19 | c1ccc(C2COc3ccccc3C2)cc1 (centres unmarked) [Example 27, isoflavan] | 0.82 µM |  | 
